This experiment deals with K98450-129-R-PDC multicell spheroids, viability. Briefly: Anticancer human tumor K98450-129-R-PDC patient-derived colon adenocarcinoma cell line growth inhibition [PI3K]. The following applies: for viability, T/C: stronger effect = lower value. An excerpt: Combinatorial screen of targeted agents with the PI3K inhibitors inavolisib, alpelisib, duvelisib, and copanlisib in multi-cell type tumor spheroids
A high-throughput screen of multi-cell type tumor spheroids was designed to identify active combinations of targeted small molecules and PI3K pathway inhibitors. Complex spheroids include a stromal component modeled by human endothelial cells (HUVEC) and fibroblasts modeled by human mesenchymal stem cells (MSCs). The concentration ranges selected for each drug and investigational agent were based upon clinically achievable concentrations if the clinical Cmax of the agent was known.
Compounds. The drugs and investigational agents: inavolisib (NSC800729), alpelisib (NSC765974), duvelisib (NSC772469), copanlisib (NSC816437), ipatasertib (NSC767898), afuresertib (NSC778305), talazoparib (NSC767125), sapanisertib (NSC764658), selumetinib (NSC741078), tovorafenib (DAY101, NSC766906), vemurafenib (NSC761431), ravoxertinib (NSC781343), sotorasib (NSC818433), MRTX1133 (NSC 836407), abemaciclib (NSC 768073), palbociclib (NSC758247), venetoclax (NSC 766270), SY5609 (NSC837396), enzalutamide (NSC755605), and darolutamide (NSC825331), were obtained from the National Cancer Institute (NCI) Developmental Therapeutics Program Chemical Repository. The FDA-approved anticancer drug set is available from the NCI Developmental Therapeutics Program. […] The stock solutions were prepared in dimethyl sulfoxide (DMSO, Sigma-Aldrich, St. Louis, MO, cat. D2650) at 800-fold the tested concentration and stored at -70 degrees C prior to their use. All drugs and investigational agents were tested over a range starting from a high concentration at or near the clinical Cmax and decreasing in half-log increments. If the clinical Cmax for an agent had not been determined, the highest concentration tested was 10 microM.
Cell Culture. All cells were maintained in an incubator at 37 degrees C and 5% CO2 with 95% humidity. The PDC lines were cultured according to standard operating procedures established by the NCI PDMR (https://pdmr.cancer.gov/sops/default.htm). All PDCs were thawed and cultured in Matrigel-coated flasks prepared with a working solution of 1X Ham's F-12 nutrient mix, without supplementation (Invitrogen, Waltham, MA, cat. 11765054), 100 U/mL penicillin-streptomycin (Invitrogen, cat. 15140122), and 2.5% Matrigel (Corning Inc., Corning, NY, cat. 354248) for the first three passages. The 354836-022-R-J1-PDC, 475296-252-R-J1-PDC, and 997726-040-R-J2-PDC lines were cultured in 6A media, which includes advanced DMEM/F-12 (Thermo Fisher Scientific, cat. 12634028), 10 mM HEPES (Thermo Fisher Scientific, cat. 15630080), 1X GlutaMAX supplement (Thermo Fisher Scientific, cat. 35050061), 0.1 mg/mL primocin (InvivoGen, San Diego, CA, cat. ant-pm-2), 10% defined fetal bovine serum, heat inactivated (HyClone Laboratories Inc., Logan, UT, cat. SH30070.03HI), 50% L-WRN conditioned media (ATCC, cat. CRL-3276), 1.25 mM N-Acetyl-L-cysteine (Sigma-Aldrich, cat. A9165), 10 mM nicotinamide (Sigma-Aldrich, cat. N0636), 1X B-27 supplement (Thermo Fisher Scientific, cat. 17504044), 1X N-2 supplement (Thermo Fisher Scientific, cat. 17502048), and 10 microM Y-27632 dihydrochloride (Tocris Bioscience, Bristol, United Kingdom, cat. 1254). The 624824-186-R-J2-PDC line was cultured in 6C/Colon 1B media, which includes all 6A media components plus 50 ng/mL human EGF recombinant protein (Thermo Fisher Scientific, cat. PHG0311). […]

Molecules are shown by their SMILES. Values joined by “and” are separate entries in the source; they are usually repeats but may differ in a detail not shown here. Equal values may be shown once.
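Also: spheroids exposed to agents for seven days before read-out.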

Regarding `CC(Cn1ccc(-c2ccc(C#N)c(Cl)c2)n1)NC(=O)c1cc(C(C)O)[nH]n1` (stereo unspecified), the viability, T/C (as a rule, the ratio of treated to control) (compound 0.0316 µM) is 92.4% and 103% (2×) and 102%; the viability, T/C (compound 0.1 µM) was 107% [middle of 4 runs]; the viability, T/C (compound 0.316 µM) was 102% [middle of 4 runs]; the viability, T/C (compound 1 µM) is 95.1% and 107% (2×) and 91.3%; the viability, T/C (compound 3.16 µM) was 108% and 104% (2×) and 96.2%; the viability, T/C (compound 10 µM) is 104% [middle of 4 runs]. The IC50 (in general, the concentration that inhibits the measured activity by half) (curve of compound) was greater than 10 µM.

For `CCN1CCN(Cc2ccc(Nc3ncc(F)c(-c4cc(F)c5nc(C)n(C(C)C)c5c4)n3)nc2)CC1`, the viability, T/C runs as follows: (compound 0.00316 µM) 108% [middle of 4 runs]; (compound 0.01 µM) 99.3% [middle of 4 runs]; (compound 0.0316 µM) 106% and 101% (2×) and 97%; (compound 0.1 µM) 94.1% [middle of 4 runs]; (compound 0.316 µM) 86.5% [middle of 4 runs]; (compound 1 µM) 87.5% [middle of 4 runs]. Where the note is “curve of compound”, the IC50 was greater than 1 µM.

As to `Cn1ncc(Cl)c1-c1cc(C(=O)NC(CN)Cc2cccc(F)c2)sc1Cl` (stereo unspecified) + Cc1nc(NC(=O)N2CCCC2C(N)=O)sc1-c1ccnc(C(C)(C)C(F)(F)F)c1, the 50% inhibitory concentration (IC50) was greater than 10 µM (curve of first compound, second compound 0.0316 µM); greater than 10 µM (curve of first compound, second compound 0.1 µM); greater than 10 µM (curve of first compound, second compound 0.316 µM); greater than 10 µM (curve of first compound, second compound 1 µM); greater than 10 µM (curve of first compound, second compound 3.16 µM); greater than 10 µM (curve of first compound, second compound 10 µM). In addition, the viability, T/C runs as follows: (second compound 0.0316 µM, first compound 0.0316 µM) 97.8%; (second compound 0.0316 µM, first compound 0.1 µM) 95%; (second compound 0.0316 µM, first compound 0.316 µM) 109%; (second compound 0.0316 µM, first compound 1 µM) 93.1%; (second compound 0.0316 µM, first compound 3.16 µM) 88.9%; (second compound 0.0316 µM, first compound 10 µM) 74.3%. Moreover, the viability, T/C is, setting by setting: (second compound 0.1 µM, first compound 0.0316 µM) 109%; (second compound 0.1 µM, first compound 0.1 µM) 99.4%; (second compound 0.1 µM, first compound 0.316 µM) 99.7%; (second compound 0.1 µM, first compound 1 µM) 90.8%; (second compound 0.1 µM, first compound 3.16 µM) 89.2%; (second compound 0.1 µM, first compound 10 µM) 78.3%. In addition, the viability, T/C is, setting by setting: (second compound 0.316 µM, first compound 0.0316 µM) 101%; (second compound 0.316 µM, first compound 0.1 µM) 93.1%; (second compound 0.316 µM, first compound 0.316 µM) 91.9%; (second compound 0.316 µM, first compound 1 µM) 92.1%; (second compound 0.316 µM, first compound 3.16 µM) 91.3%; (second compound 0.316 µM, first compound 10 µM) 76.9%. The viability, T/C is, setting by setting: (second compound 1 µM, first compound 0.0316 µM) 94%; (second compound 1 µM, first compound 0.1 µM) 91%; (second compound 1 µM, first compound 0.316 µM) 97.1%; (second compound 1 µM, first compound 1 µM) 89.6%; (second compound 1 µM, first compound 3.16 µM) 91.7%; (second compound 1 µM, first compound 10 µM) 72.9%. Further, the viability, T/C reads like this: (second compound 3.16 µM, first compound 0.0316 µM) 82.9%; (second compound 3.16 µM, first compound 0.1 µM) 85.1%; (second compound 3.16 µM, first compound 0.316 µM) 86.8%; (second compound 3.16 µM, first compound 1 µM) 80.4%; (second compound 3.16 µM, first compound 3.16 µM) 86.2%; (second compound 3.16 µM, first compound 10 µM) 63.8%. For the same compound, the viability, T/C is, setting by setting: (second compound 10 µM, first compound 0.0316 µM) 66.9%; (second compound 10 µM, first compound 0.1 µM) 69.6%; (second compound 10 µM, first compound 0.316 µM) 74.1%; (second compound 10 µM, first compound 1 µM) 72.5%; (second compound 10 µM, first compound 3.16 µM) 78.5%; (second compound 10 µM, first compound 10 µM) 52.2%.

(Values after PubChem BioAssay AID1963961 (Molecular Pharmacology Branch, DTP, NCI, 2024).)
